Reference: US12545639B2, “3-substituted phenylamidine compounds, preparation and use thereof” (PI INDUSTRIES LTD., priority 2019, dated 2026)

Legend:
Pyricularia oryzae = experiment: microbe, parasite or virus in culture; type: cell-based; settings: 168 h, read-out: control compared to the untreated check (radial growth)
Rhizoctonia solani = Rhizoctonia solani (rice sheath blight/potato black scurf) in vitro test, radial growth on potato dextrose agar; type: cell-based; settings: 168 h, 300 ppm in potato dextrose agar, 25° C., 60% relative humidity, seven days, read-out: control compared to the untreated check (radial growth)
Botrytis cinerea = Botrytis cinerea (gray mold) in vitro test, radial growth on potato dextrose agar; type: cell-based; settings: 168 h, 300 ppm in potato dextrose agar, 22° C., 90% relative humidity, seven days, read-out: control compared to the untreated check (radial growth)
Alternaria solani = Alternaria solani (early blight of tomato/potato) in vitro test, radial growth on potato dextrose agar; type: cell-based; settings: 168 h, 300 ppm in potato dextrose agar, 25° C., 60% relative humidity, seven days, read-out: control compared to the untreated check (radial growth)
Colletotrichum capsici = Colletotrichum capsici (anthracnose) in vitro test, radial growth on potato dextrose agar; type: cell-based; settings: Colletotrichum truncatum, 168 h; 300 ppm in potato dextrose agar; 25° C., 60% relative humidity, seven days; read-out: control compared to the untreated check (radial growth)
Phakopsora pachyrhizi = Phakopsora pachyrhizi test in soybean, preventive, in vivo on plants; settings: in Glycine max, read-out: Efficacy (% control), disease severity compared to the untreated check
[1] = tested on: Septoria lycopersici/Corynespora cassicola (CORYCA); experiment: Septoria lycopersici/Corynespora cassicola (CORYCA) (leaf spot of tomato) in vitro test, radial growth on potato dextrose agar; type: cell-based; settings: 168 h, 300 ppm in potato dextrose agar, 25° C., 70% relative humidity, seven days, read-out: control compared to the untreated check (radial growth)

CCN(C)C=Nc1cc(F)cc(N(C)c2cccc(C)c2F)c1C [Compound 152, N-ethyl-N′-(5-fluoro-3-((2-fluoro-3-methylphenyl)(methyl)amino)-2-methylphenyl)-N-methylformimidamide]
≥ 70%: inhibition of growth at 300 ppm (Pyricularia oryzae) | inhibition of growth at 300 ppm (Rhizoctonia solani) | inhibition of growth at 300 ppm (Botrytis cinerea) | inhibition of growth at 300 ppm (Alternaria solani) | inhibition of growth at 300 ppm (Colletotrichum capsici) | pest or weed control at 500 ppm (Phakopsora pachyrhizi)

CCN(C)C=Nc1cc(Cl)cc(Cc2cccc(F)c2)c1C [Compound 102, N′-(5-chloro-3-(3-fluorobenzyl)-2-methylphenyl)-N-ethyl-N-methylformimidamide]
≥ 70%: inhibition of growth at 300 ppm (Pyricularia oryzae) | inhibition of growth at 300 ppm (Rhizoctonia solani) | inhibition of growth at 300 ppm (Botrytis cinerea) | inhibition of growth at 300 ppm (Alternaria solani) | inhibition of growth at 300 ppm (Colletotrichum capsici) | pest or weed control at 500 ppm (Phakopsora pachyrhizi)

CCN(C)C=Nc1cc(F)cc(Nc2cc(C)cc(F)c2)c1C [Compound 114, N-ethyl-N′-(5-fluoro-3-((3-fluoro-5-methylphenyl)amino)-2-methylphenyl)-N-methylformimidamide]
≥ 70%: inhibition of growth at 300 ppm (Pyricularia oryzae) | inhibition of growth at 300 ppm (Alternaria solani) | inhibition of growth at 300 ppm (Colletotrichum capsici) | inhibition of growth at 300 ppm [1] | pest or weed control at 500 ppm (Phakopsora pachyrhizi)

CCN(C)C=Nc1cc(Cl)cc(NCc2cccc(Cl)c2)c1C [Compound 183, N′-(5-chloro-3-((3-chlorobenzyl)amino)-2-methylphenyl)-N-ethyl-N-methylformimidamide]
≥ 70%: inhibition of growth at 300 ppm (Pyricularia oryzae) | inhibition of growth at 300 ppm (Rhizoctonia solani) | inhibition of growth at 300 ppm (Botrytis cinerea) | inhibition of growth at 300 ppm (Alternaria solani) | inhibition of growth at 300 ppm (Colletotrichum capsici) | pest or weed control at 500 ppm (Phakopsora pachyrhizi)

CCN(C)C=Nc1cc(C)cc(Cc2ccccc2C(F)(F)F)c1Cl [Compound 21, N′-(2-chloro-5-methyl-3-(2-(trifluoromethyl)benzyl)phenyl)-N-ethyl-N-methylformimidamide]
≥ 70%: inhibition of growth at 300 ppm (Pyricularia oryzae) | inhibition of growth at 300 ppm (Rhizoctonia solani) | inhibition of growth at 300 ppm (Botrytis cinerea) | inhibition of growth at 300 ppm (Alternaria solani) | inhibition of growth at 300 ppm (Colletotrichum capsici) | pest or weed control at 500 ppm (Phakopsora pachyrhizi)

CCN(C)C=Nc1cc(C)cc(Cc2cc(F)c(OC)c(F)c2)c1Cl [Compound 71, N′-(2-chloro-3-(3,5-difluoro-4-methoxybenzyl)-5-methylphenyl)-N-ethyl-N-methylformimidamide]
≥ 70%: inhibition of growth at 300 ppm (Pyricularia oryzae) | inhibition of growth at 300 ppm (Rhizoctonia solani) | inhibition of growth at 300 ppm (Botrytis cinerea) | inhibition of growth at 300 ppm (Alternaria solani) | inhibition of growth at 300 ppm (Colletotrichum capsici) | pest or weed control at 500 ppm (Phakopsora pachyrhizi)

CCN(C)C=Nc1cc(C)cc(Nc2cccc(Cl)c2)c1Cl [Compound 34, N′-(2-chloro-3-((3-chlorophenyl)amino)-5-methylphenyl)-N-ethyl-N-methylformimidamide]
≥ 70%: inhibition of growth at 300 ppm (Pyricularia oryzae) | inhibition of growth at 300 ppm (Rhizoctonia solani) | inhibition of growth at 300 ppm (Botrytis cinerea) | inhibition of growth at 300 ppm (Alternaria solani) | inhibition of growth at 300 ppm (Colletotrichum capsici) | pest or weed control at 500 ppm (Phakopsora pachyrhizi)

CCN(C)C=Nc1cc(C)cc(Nc2cc(C)ccc2Cl)c1Cl [Compound 115, N′-(2-chloro-3-((2-chloro-5-methylphenyl)amino)-5-methylphenyl)-N-ethyl-N-methylformimidamide]
≥ 70%: inhibition of growth at 300 ppm (Pyricularia oryzae) | inhibition of growth at 300 ppm (Alternaria solani) | inhibition of growth at 300 ppm (Colletotrichum capsici) | inhibition of growth at 300 ppm [1] | pest or weed control at 500 ppm (Phakopsora pachyrhizi)

CCN(C)C=Nc1cc(C)cc(N(C)c2cccc(Cl)c2)c1Cl [Compound 41, N′-(2-chloro-3-((3-chlorophenyl)(methyl)amino)-5-methylphenyl)-N-ethyl-N-methylformimidamide]
≥ 70%: inhibition of growth at 300 ppm (Pyricularia oryzae) | inhibition of growth at 300 ppm (Botrytis cinerea) | inhibition of growth at 300 ppm (Alternaria solani) | inhibition of growth at 300 ppm (Colletotrichum capsici) | pest or weed control at 500 ppm (Phakopsora pachyrhizi)

CCN(C)C=Nc1cc(C)cc(Cc2ccc(Br)cc2)c1Cl [Compound 93, N′-(3-(4-bromobenzyl)-2-chloro-5-methylphenyl)-N-ethyl-N-methylformimidamide]
≥ 70%: inhibition of growth at 300 ppm (Pyricularia oryzae) | inhibition of growth at 300 ppm (Rhizoctonia solani) | inhibition of growth at 300 ppm (Botrytis cinerea) | inhibition of growth at 300 ppm (Alternaria solani) | inhibition of growth at 300 ppm (Colletotrichum capsici) | pest or weed control at 500 ppm (Phakopsora pachyrhizi)

CCN(C)C=Nc1cc(F)cc(Cc2ccc(C)cc2)c1C [Compound 171, N-ethyl-N′-(5-fluoro-2-methyl-3-(4-methylbenzyl)phenyl)-N-methylformimidamide]
≥ 70%: inhibition of growth at 300 ppm (Pyricularia oryzae) | inhibition of growth at 300 ppm (Rhizoctonia solani) | inhibition of growth at 300 ppm (Botrytis cinerea) | inhibition of growth at 300 ppm (Alternaria solani) | inhibition of growth at 300 ppm (Colletotrichum capsici)

CCc1cccc(Nc2cc(C)cc(N=CN(C)CC)c2Cl)n1 [Compound 226, N′-(2-chloro-3-((6-ethylpyridin-2-yl)amino)-5-methylphenyl)-N-ethyl-N-methylformimidamide]
≥ 70%: inhibition of growth at 300 ppm (Alternaria solani) | inhibition of growth at 300 ppm (Colletotrichum capsici) | inhibition of growth at 300 ppm [1]

CCN(C)C=Nc1cc(Cl)cc(Cc2cccc(Cl)c2)c1C [Compound 101, N′-(5-chloro-3-(3-chlorobenzyl)-2-methylphenyl)-N-ethyl-N-methylformimidamide]
≥ 70%: inhibition of growth at 300 ppm (Pyricularia oryzae) | inhibition of growth at 300 ppm (Alternaria solani) | inhibition of growth at 300 ppm (Colletotrichum capsici) | inhibition of growth at 300 ppm [1] | pest or weed control at 500 ppm (Phakopsora pachyrhizi)

CCN(C)C=Nc1cc(C)cc(Nc2cccc(C)c2)c1Cl [Compound 36, N′-(2-chloro-5-methyl-3-(m-tolylamino)phenyl)-N-ethyl-N-methylformimidamide]
≥ 70%: inhibition of growth at 300 ppm (Pyricularia oryzae) | inhibition of growth at 300 ppm (Alternaria solani) | inhibition of growth at 300 ppm (Colletotrichum capsici) | inhibition of growth at 300 ppm [1] | pest or weed control at 500 ppm (Phakopsora pachyrhizi)

CCN(C)C=Nc1cc(F)cc(Cc2cc(F)ccc2Br)c1C [Compound 233, N′-(3-(2-bromo-5-fluorobenzyl)-5-fluoro-2-methylphenyl)-N-ethyl-N-methylformimidamide]
≥ 70%: inhibition of growth at 300 ppm (Pyricularia oryzae) | inhibition of growth at 300 ppm (Rhizoctonia solani) | inhibition of growth at 300 ppm (Botrytis cinerea) | inhibition of growth at 300 ppm (Alternaria solani) | inhibition of growth at 300 ppm (Colletotrichum capsici) | pest or weed control at 500 ppm (Phakopsora pachyrhizi)

CCN(C)C=Nc1cc(C)cc(Cc2ccccc2Br)c1Cl [Compound 45, N′-(3-(2-bromobenzyl)-2-chloro-5-methylphenyl)-N-ethyl-N-methylformimidamide]
≥ 70%: inhibition of growth at 300 ppm (Pyricularia oryzae) | inhibition of growth at 300 ppm (Rhizoctonia solani) | inhibition of growth at 300 ppm (Botrytis cinerea) | inhibition of growth at 300 ppm (Alternaria solani) | inhibition of growth at 300 ppm (Colletotrichum capsici) | pest or weed control at 500 ppm (Phakopsora pachyrhizi)

CCN(C)C=Nc1cc(Cl)cc(Cc2ccccc2Br)c1C [Compound 90, N′-(3-(2-bromobenzyl)-5-chloro-2-methylphenyl)-N-ethyl-N-methylformimidamide]
≥ 70%: inhibition of growth at 300 ppm (Pyricularia oryzae) | inhibition of growth at 300 ppm (Rhizoctonia solani) | inhibition of growth at 300 ppm (Botrytis cinerea) | inhibition of growth at 300 ppm (Alternaria solani) | inhibition of growth at 300 ppm (Colletotrichum capsici) | pest or weed control at 500 ppm (Phakopsora pachyrhizi)

CCN(C)C=Nc1cc(C)cc(Cc2ccc(F)c(C)c2)c1Cl [Compound 68, N′-(2-chloro-3-(4-fluoro-3-methylbenzyl)-5-methylphenyl)-N-ethyl-N-methylformimidamide]
≥ 70%: inhibition of growth at 300 ppm (Pyricularia oryzae) | inhibition of growth at 300 ppm (Rhizoctonia solani) | inhibition of growth at 300 ppm (Botrytis cinerea) | inhibition of growth at 300 ppm (Alternaria solani) | inhibition of growth at 300 ppm (Colletotrichum capsici) | pest or weed control at 500 ppm (Phakopsora pachyrhizi)

CCN(C)C=Nc1cc(C)cc(Cc2ccc(F)cc2C)c1Cl [Compound 65, N′-(2-chloro-3-(4-fluoro-2-methylbenzyl)-5-methylphenyl)-N-ethyl-N-methylformimidamide]
≥ 70%: inhibition of growth at 300 ppm (Pyricularia oryzae) | inhibition of growth at 300 ppm (Rhizoctonia solani) | inhibition of growth at 300 ppm (Botrytis cinerea) | inhibition of growth at 300 ppm (Alternaria solani) | inhibition of growth at 300 ppm (Colletotrichum capsici) | pest or weed control at 500 ppm (Phakopsora pachyrhizi)

CCN(C)C=Nc1cc(C)cc(Cc2ccc(OC)cc2)c1Cl [Compound 150, N′-(2-chloro-3-(4-methoxybenzyl)-5-methylphenyl)-N-ethyl-N-methylformimidamide]
≥ 70%: inhibition of growth at 300 ppm (Pyricularia oryzae) | inhibition of growth at 300 ppm (Rhizoctonia solani) | inhibition of growth at 300 ppm (Botrytis cinerea) | inhibition of growth at 300 ppm (Alternaria solani) | inhibition of growth at 300 ppm (Colletotrichum capsici) | pest or weed control at 500 ppm (Phakopsora pachyrhizi)

CCN(C)C=Nc1cc(Cl)cc(Cc2cccc(Br)c2)c1C [Compound 245, N′-(3-(3-bromobenzyl)-5-chloro-2-methylphenyl)-N-ethyl-N-methylformimidamide]
≥ 70%: inhibition of growth at 300 ppm (Pyricularia oryzae) | inhibition of growth at 300 ppm (Rhizoctonia solani) | inhibition of growth at 300 ppm (Botrytis cinerea) | inhibition of growth at 300 ppm (Alternaria solani) | inhibition of growth at 300 ppm (Colletotrichum capsici)

CCN(C)C=Nc1cc(C)cc(N(C)c2cccc(F)c2)c1Cl [Compound 40, N′-(2-chloro-3-((3-fluorophenyl)(methyl)amino)-5-methylphenyl)-N-ethyl-N-methylformimidamide]
≥ 70%: inhibition of growth at 300 ppm (Pyricularia oryzae) | inhibition of growth at 300 ppm (Botrytis cinerea) | inhibition of growth at 300 ppm (Alternaria solani) | inhibition of growth at 300 ppm (Colletotrichum capsici) | pest or weed control at 500 ppm (Phakopsora pachyrhizi)

CCN(C)C=Nc1cc(F)cc(N(C)c2cc(Cl)ccc2C)c1C [Compound 98, N′-(3-((5-chloro-2-methylphenyl)(methyl)amino)-5-fluoro-2-methylphenyl)-N-ethyl-N-methylformimidamide]
≥ 70%: inhibition of growth at 300 ppm (Pyricularia oryzae) | inhibition of growth at 300 ppm (Rhizoctonia solani) | inhibition of growth at 300 ppm (Botrytis cinerea) | inhibition of growth at 300 ppm (Alternaria solani) | inhibition of growth at 300 ppm (Colletotrichum capsici) | pest or weed control at 500 ppm (Phakopsora pachyrhizi)
